Test results as given in PMC12057359, “Inhibitory effect of copper chelators on the budding in Candida albicans” (Antimicrobial Agents and Chemotherapy, 2025).
pIC50: −log10 of the molar value. Where a name gives a salt, the structure may show the parent alone. Read-outs that look alike come from different tables or passages of the source. Numbered stars: 1 amine (or outer) side, 2 acyl side, 3 side chain; on linkers, the order of the positions; unused ones are H or OH. Bridge positions count the residues as written; N and C are the ends. Square brackets hold non-standard residues; d marks the D form. Peptide text beside a SMILES is read from it. * marks the point of attachment. hTyr(3S-OH,4S-OH,3'-OSO3H) = N[C@H](C(=O)O)[C@H](O)[C@@H](O)c1ccc(O)c(OS(=O)(=O)O)c1; Orn(4R-OH,5R-OH) = O=C([C@H](C[C@@H](O)[C@@H](O)N[*:3])N[*:1])[*:2]; Pro(3S-OH,4S-Me) = C[C@H]1CN[C@H](C(=O)O)[C@H]1O; X1 = CCCCCOc1ccc(-c2cc(-c3ccc(C(=O)*)cc3)no2)cc1; Gln(3R-OH) = NC(=O)C[C@@H](O)[C@H](N)C(=O)O; Hyp = O=C(O)[C@@H]1C[C@@H](O)CN1

What was measured:
[1] = iHOPE in vitro cytotoxicity assessment (Cell Count Reagent SF); format: cell-based, human; conditions: human
Experimental: The method for in vitro cytotoxicity assessment using Cell Count Reagent SF (Nacalai Tesque) has been described previously ([15]). […] Test compounds were added to the culture medium, and then the plates were incubated at 28°C for 24 h.

C. albicans JCM1542 [2] = assay: iHOPE antimicrobial microdilution assay (turbidity OD600); format: cell-based, Candida albicans; conditions: read-out: IC50 against C. albicans JCM1542
P. oryzae Kita-1 = assay: microbe, parasite or virus in culture; format: cell-based, Pyricularia oryzae; conditions: Pyricularia oryzae, KITA1, read-out: IC50 against P. oryzae Kita-1
C. auris VPCI673 = assay: iHOPE antimicrobial microdilution assay (turbidity OD600); format: cell-based, Candida auris; conditions: Candidozyma auris, read-out: IC50 against C. auris VPCI673
C. tropicalis JCM1541 = assay: as above; format: cell-based; conditions: Candida tropicalis, read-out: IC50 against C. tropicalis JCM1541
C. auris Ci6684 = assay: as above; format: cell-based, Candida auris; conditions: Candidozyma auris, read-out: IC50 against C. auris Ci6684
C. albicans JCM1542 [3] = format: cell-based, Candida albicans
C. glabrata JCM3761 = assay: iHOPE antimicrobial microdilution assay (turbidity OD600); format: cell-based, Candida glabrata; conditions: Nakaseomyces glabratus, read-out: IC50 against C. glabrata JCM3761
A. fumigatus Af293 = assay: iHOPE antimicrobial microdilution assay; format: cell-based, Aspergillus fumigatus; conditions: Aspergillus fumigatus
S. aureus 209P = assay: iHOPE antimicrobial microdilution assay; format: cell-based, Staphylococcus aureus; conditions: Staphylococcus aureus, 209P, read-out: IC50 against S. aureus 209P
E. coli HO-141 = assay: iHOPE antimicrobial microdilution assay; format: cell-based, Escherichia coli; conditions: Escherichia coli
[4] = SD in parentheses, n = 3, read-out: IC50 against HL-60 RCB0041 (cytotoxicity)
[5] = Candida albicans, JCM1542, MOPS-RPMI medium, 28°C, 24 h, OD600, standard deviation in parentheses, n = 3
[6] = VPCI673, MOPS-RPMI medium, 24 h, SD in parentheses, n = 3
[7] = JCM1541, MOPS-RPMI medium, 24 h, SD in parentheses, n = 3
[8] = CI6684, MOPS-RPMI medium, 24 h, SD in parentheses, n = 3
[9] = JCM3761, MOPS-RPMI medium, 24 h, SD in parentheses, n = 3
[10] = AF293, SD in parentheses, n = 3, read-out: IC50 against A. fumigatus Af293
[11] = HO141, SD in parentheses, n = 3, read-out: IC50 against E. coli HO-141
[12] = C. albicans JCM1542, MOPS-RPMI medium, 24 h

SMILES	pIC50 [1, 4]	pIC50 (C. albicans JCM1542 [2]; [5])	pIC50 (P. oryzae Kita-1)	pIC50 (C. auris VPCI673; [6])	pIC50 (C. tropicalis JCM1541; [7])	pIC50 (C. auris Ci6684; [8])	pIC50 (C. glabrata JCM3761; [9])	further results
[C-]#[N+][C@@H](C)CC(=O)N[C@H]1CC[C@H](NC(=O)C[C@H](C)[N+]#[C-])CC1 [16b]	< 4.52	6.21						
OC(Cn1cncn1)(Cn1cncn1)c1ccc(F)cc1F [Fluconazole, fluconazole]		6.41	< 4.52	< 4.52	6.40	< 4.52	6.16	pIC50 ([1]; HL-60 RCB0041 cells (promyelocytic leukemia cell line), SD in parentheses, n = 3, read-out: IC50 against HL-60 RCB0041 (cytotoxicity)): < 4.52; morphological change induced in C. albicans (C. albicans JCM1542 [3]): yeast-rich morphology; pIC50 (A. fumigatus Af293; [10]): < 4.52; pIC50 (S. aureus 209P; SD in parentheses, n = 3): < 4.52; pIC50 (E. coli HO-141; [11]): < 4.52
[C-]#[N+][C@H](C)CC(=O)NCc1ccc(NC(=O)C[C@@H](C)[N+]#[C-])cc1 [10a]	< 4.52	6.42						
CCCCCOc1ccc(-c2cc(-c3ccc(C(=O)N[C@H]4C[C@@H](O)[C@@H](O)NC(=O)[C@@H]5[C@@H](O)[C@@H](C)CN5C(=O)[C@H]([C@H](O)CC(N)=O)NC(=O)[C@H]([C@H](O)[C@@H](O)c5ccc(O)c(OS(=O)(=O)O)c5)NC(=O)[C@@H]5C[C@@H](O)CN5C(=O)[C@H]([C@@H](C)O)NC4=O)cc3)no2)cc1 [Micafungin, micafungin] (X1-[Orn(4R-OH,5R-OH)]T[Hyp][hTyr(3S-OH,4S-OH,3'-OSO3H)][Gln(3R-OH)][Pro(3S-OH,4S-Me)]; lactam 1-C)	< 4.52		< 4.52					pIC50 (C. auris VPCI673; VPCI673, 24 h): 7.57; pIC50 (C. tropicalis JCM1541; JCM1541, 24 h): 8.27; pIC50 (C. auris Ci6684; CI6684, 24 h): 7.54; morphological change induced in C. albicans (C. albicans JCM1542 [3]; [12]): yeast-rich morphology; pIC50 (C. albicans JCM1542 [2]; Candida albicans, JCM1542, 24 h): 8.48; pIC50 (C. glabrata JCM3761; JCM3761, 24 h): 8.31; pIC50 (A. fumigatus Af293; AF293, read-out: IC50 against A. fumigatus Af293): 8.40; pIC50 (S. aureus 209P): < 4.52; pIC50 (E. coli HO-141; HO141, read-out: IC50 against E. coli HO-141): < 4.52
[C-]#[N+][C@@H](C)CC(=O)Nc1ccc(NC(=O)C[C@H](C)[N+]#[C-])cc1 [13b]	< 4.52	7.47						
COc1cc(-c2ccccn2)nc(/C=N/O)c1SC [collismycin]								morphological change induced in C. albicans (C. albicans JCM1542 [3]; [12]): elongated, but not as long as SF2768, and tortuous hyphae
C[C@@H]1[C@H](O)[C@@H](C)/C=C/C=C/C=C/C=C/C=C/C=C/C=C/[C@H](O[C@@H]2O[C@H](C)[C@@H](O)[C@H](N)[C@@H]2O)C[C@@H]2O[C@](O)(C[C@@H](O)C[C@@H](O)[C@H](O)CC[C@@H](O)C[C@@H](O)CC(=O)O[C@H]1C)C[C@H](O)[C@H]2C(=O)O [Amphotericin B, amphotericin B]		7.41	6.80	6.36	7.34	6.39	7.20	pIC50 [1]: 4.77; morphological change induced in C. albicans (C. albicans JCM1542 [3]): yeast-rich morphology; pIC50 (A. fumigatus Af293; [10]): 6.68; pIC50 (S. aureus 209P; SD in parentheses, n = 3): < 4.52; pIC50 (E. coli HO-141; [11]): < 4.52
CC(C)(S)[C@@H](N)C(=O)O [D-Penicillamine, D-penicillamine]			< 3.00	< 3.00	< 3.00	< 3.00	3.57	pIC50 [1]: < 3.00; morphological change induced in C. albicans (C. albicans JCM1542 [3]; [12]): morphological changes similar to those observed with SF2768; pIC50 (A. fumigatus Af293; [10]): < 3.00; pIC50 (S. aureus 209P; SD in parentheses, n = 3): < 3.00; pIC50 (E. coli HO-141; [11]): < 3.00
NCCNCCNCCN [Trientine, trientine hydrochloride]		6.24	< 4.00	< 4.00	4.74	< 4.00	6.92	pIC50 [1]: < 4.00; morphological change induced in C. albicans (C. albicans JCM1542 [3]): morphological changes similar to those observed with SF2768; pIC50 (A. fumigatus Af293; [10]): 5.09; pIC50 (S. aureus 209P; SD in parentheses, n = 3): < 4.00; pIC50 (E. coli HO-141; [11]): < 4.00
[C-]#[N+][C@H](C)CC(=O)Nc1ccc(NC(=O)C[C@@H](C)[N+]#[C-])cc1 [13a]	< 4.52	6.39						
[C-]#[N+][C@@H](C)CC(=O)NCCc1ccc(NC(=O)C[C@H](C)[N+]#[C-])cc1 [12b]	< 4.52	7.92		6.85	7.92	7.26	7.92	
[C-]#[N+][C@H](C)CC(=O)N[C@H]1CC[C@@H](NC(=O)C[C@@H](C)[N+]#[C-])CC1 [15a]	< 4.52	7.82		7.19	7.49	7.31	8.09	
OO [H2O2]								pIC50 (C. albicans JCM1542 [2]; MOPS-RPMI medium, 28°C, 24 h, OD600, standard deviation in parentheses, n = 3): 3.26
[C-]#[N+][C@H](C)CC(=O)NCCc1ccc(NC(=O)C[C@@H](C)[N+]#[C-])cc1 [12a]	< 4.52	7.92		6.74	7.89	7.24	8.00	
